Measurements: US10519098B2, “Aromatic derivatives as anti-malarial” (Council of Scientific & Industrial Research, priority 2014, dated 2019)
Like-named read-outs stand apart in the source and are kept apart here.

What was measured:
[1] = system: Chloroquine-sensitive (3D7) strain of P. falciparum; assay: Malaria SYBR Green I-based fluorescence (MSF) assay, 3D7 strain; type: cell-based; conditions: Plasmodium falciparum
Method: (§1) The stock (5 mg/mL or 10 mM) solutions of extracts were prepared in DMSO and required dilutions were made in culture medium.
(§2) Two-fold serial dilutions of test samples were made in 96 well plates and incubated with 1.0% parasitized cell suspension containing 0.8% parasitaemia (Asynchronous culture with more than 80% ring stages). The plates were incubated at 37° C. in CO2 incubator in an atmosphere of 5% CO2 and air mixture. 72 hours later 100 μL of lysis buffer containing 2× concentration of SYBR Green-I (Invitrogen) was added to each well and incubated for one hour at 37° C. The plates were examined at 485±20 nm of excitation and 530±20 nm of emission for relative fluorescence units (RFUs) per well using the fluorescence plate reader (FLX800, BIOTEK). IC50 values were obtained by Logit regression analysis of dose response curves (Singh et al. 2011).

[2] = system: Chloroquine-resistant (K1) strain of P. falciparum; assay: Malaria SYBR Green I-based fluorescence (MSF) assay, K1 strain; type: cell-based; conditions: Plasmodium falciparum
Method: as §1, §2

in vitro = conditions: monkey
Method: The cells were incubated with test sample dilutions for 72 h and MTT was used as reagent for detection of cytotoxicity. Podophyllotoxin (SIGMA) was used as the standard reference drug.

[3] = P. falciparum 3D7, 72 hours incubation, read-out: IC50 against 3D7
[4] = P. falciparum K1, 72 hours incubation, read-out: IC50 against K1
[5] = 3D7, range given for listed compounds, read-out: IC50 values against 3D7 culture
[6] = K1, range given for listed compounds, read-out: IC50 values against K1 culture

| IC50 [1, 3] [µM] | melting point [°C] | IC50 [2, 4] [µM] | IC50 [1, 5] [µM] | IC50 [2, 6] [µM] | SMILES | IC50 ([1]; 3D7, 72 h, read-out: IC50 against 3D7) [µM] | IC50 ([2]; K1, 72 h, read-out: IC50 against K1) [µM] | CC50 at 72 h (in vitro) [µM] |
| --- | --- | --- | --- | --- | --- | --- | --- | --- |
|  |  |  |  |  | CCN(CC)CCCC(C)Nc1ccnc2cc(Cl)ccc12 (centres unmarked) [CQ, Chloroquine, reference compound] | 0.005 | 0.25 ± 0.02 |  |
| > 5 | 123 to 125 |  |  |  | COc1ccc([C@H](CNC(=O)/C=C/c2ccccc2)OC(=O)/C=C/c2ccccc2)cc1OC [Compound 2, (R)-2-cinnamamido-1-(3,4-dimethoxyphenyl)ethyl cinnamate] |  |  | 66.7 |
| > 5 |  |  |  |  | COc1ccc([C@@H](COC(=O)/C=C/c2ccccc2)OC(=O)/C=C/c2ccccc2)cc1OC [Compound 3, (S)-1-(3,4-dimethoxyphenyl)ethane-1,2-diyl(2E,2′E)-bis(3-phenyl acrylate)] |  |  | 24.3 |
| > 5 |  | > 5 |  |  | COc1ccc([C@H](COC(=O)/C=C/c2ccccc2)OC(=O)/C=C/c2ccccc2)cc1OC [Compound 4, (R)-1-(3,4-dimethoxyphenyl)ethane-1,2-diyl (2E,2′E)-bis(3-phenyl acrylate)] |  |  | 5.87 |
| > 5 | 126 to 127 |  |  |  | COc1cc([C@H](CNC(=O)/C=C/c2ccccc2)OC(=O)/C=C/c2ccccc2)cc(OC)c1OC [Compound 6, (R)-2-cinnamamido-1-(3,4,5-trimethoxyphenyl)ethyl cinnamate] |  |  | 5.08 |
| 3.37 |  | 3.47 | 2 to 7 | 1.5 to 4 | COc1cc([C@@H](COC(=O)/C=C/c2ccccc2)OC(=O)/C=C/c2ccccc2)cc(OC)c1OC [Compound 7, (S)-1-(3,4,5-trimethoxyphenyl)ethane-1,2-diyl(2E,2′E)-bis(3-phenyl acrylate)] |  |  | 6.44 |
| > 5 |  |  |  |  | COc1cc([C@H](COC(=O)/C=C/c2ccccc2)OC(=O)/C=C/c2ccccc2)cc(OC)c1OC [Compound 8, (R)-1-(3,4,5-trimethoxyphenyl)ethane-1,2-diyl (2E,2′E)-bis(3-phenyl acrylate)] |  |  | 122 |
| > 5 | 112 to 114 |  |  |  | COc1ccccc1[C@H](CNC(=O)/C=C/c1ccccc1)OC(=O)/C=C/c1ccccc1 [Compound 10, (R)-2-cinnamamido-1-(2-methoxyphenyl)ethyl cinnamate] |  |  | 117 |
| 3.8 |  | 3.23 | 2 to 7 | 1.5 to 4 | COc1ccccc1[C@@H](COC(=O)/C=C/c1ccccc1)OC(=O)/C=C/c1ccccc1 [Compound 11, (S)-1-(2-methoxyphenyl)ethane-1,2-diyl (2E,2′E)-bis(3-phenylacrylate)] |  |  | 14 |
| > 5 |  |  |  |  | COc1ccccc1[C@H](COC(=O)/C=C/c1ccccc1)OC(=O)/C=C/c1ccccc1 [Compound 12, (R)-1-(2-methoxyphenyl)ethane-1,2-diyl (2E,2′E)-bis(3-phenylacrylate)] |  |  | 51.7 |
| > 5 | 139 to 141 |  |  |  | COc1cccc([C@@H](CNC(=O)/C=C/c2ccccc2)OC(=O)/C=C/c2ccccc2)c1 [Compound 13, (S)-2-cinnamamido-1-(3-methoxyphenyl)ethyl cinnamate] |  |  | 148 |
| > 5 | 138 to 140 |  |  |  | COc1cccc([C@H](CNC(=O)/C=C/c2ccccc2)OC(=O)/C=C/c2ccccc2)c1 [Compound 14, (R)-2-cinnamamido-1-(3-methoxyphenyl)ethyl cinnamate] |  |  | 62.7 |
| > 5 | 67 to 69 |  |  |  | COc1cccc([C@@H](COC(=O)/C=C/c2ccccc2)OC(=O)/C=C/c2ccccc2)c1 [Compound 15, (S)-1-(3-methoxyphenyl)ethane-1,2-diyl (2E,2′E)-bis(3-phenylacrylate)] |  |  | 61.9 |
| > 5 | 67 to 69 |  |  |  | COc1cccc([C@H](COC(=O)/C=C/c2ccccc2)OC(=O)/C=C/c2ccccc2)c1 [Compound 16, (R)-1-(3-methoxyphenyl)ethane-1,2-diyl (2E,2′E)-bis(3-phenylacrylate)] |  |  | 22.3 |
| > 5 | 137 to 139 |  |  |  | COc1ccc([C@@H](CNC(=O)/C=C/c2ccccc2)OC(=O)/C=C/c2ccccc2)cc1 [Compound 17, (S)-2-cinnamamido-1-(4-methoxyphenyl)ethyl cinnamate] |  |  |  |
| > 5 | 138 to 140 |  |  |  | COc1ccc([C@H](CNC(=O)/C=C/c2ccccc2)OC(=O)/C=C/c2ccccc2)cc1 [Compound 18, (R)-2-cinnamamido-1-(4-methoxyphenyl)ethyl cinnamate] |  |  |  |
| > 5 | 93 to 96 |  |  |  | COc1ccc([C@@H](COC(=O)/C=C/c2ccccc2)OC(=O)/C=C/c2ccccc2)cc1 [Compound 19, (S)-1-(4-methoxyphenyl)ethane-1,2-diyl (2E,2′E)-bis(3-phenylacrylate)] |  |  | 33.5 |
| > 5 | 76 to 79 |  |  |  | COc1ccc([C@H](COC(=O)/C=C/c2ccccc2)OC(=O)/C=C/c2ccccc2)cc1 [Compound 20, (R)-1-(4-methoxyphenyl)ethane-1,2-diyl (2E,2′E)-bis(3-phenylacrylate)] |  |  | 23.3 |
| > 5 | 105 to 108 |  |  |  | COc1cccc([C@@H](CNC(=O)/C=C/c2ccccc2)OC(=O)/C=C/c2ccccc2)c1OC [Compound 21, (S)-2-cinnamamido-1-(2,3-dimethoxyphenyl)ethyl cinnamate] |  |  | > 200 |
| > 5 |  |  |  |  | COc1cccc([C@@H](COC(=O)/C=C/c2ccccc2)OC(=O)/C=C/c2ccccc2)c1OC [Compound 23, (S)-1-(2,3-dimethoxyphenyl)ethane-1,2-diyl (2E,2′E)-bis(3-phenyl acrylate)] |  |  | 28.4 |
| > 5 |  |  |  |  | COc1cccc([C@H](COC(=O)/C=C/c2ccccc2)OC(=O)/C=C/c2ccccc2)c1OC [Compound 24, (R)-1-(2,3-dimethoxyphenyl)ethane-1,2-diyl(2E,2′E)-bis(3-phenyl acrylate)] |  |  | 82.7 |
| > 5 | 131 to 133 |  |  |  | O=C(/C=C/c1ccccc1)OC[C@@H](OC(=O)/C=C/c1ccccc1)c1ccccc1 [Compound 27, (S)-1-phenylethane-1,2-diyl (2E,2′E)-bis(3-phenylacrylate)] |  |  | 39.1 |
| > 5 | 132 to 134 |  |  |  | O=C(/C=C/c1ccccc1)OC[C@H](OC(=O)/C=C/c1ccccc1)c1ccccc1 [Compound 28, (R)-1-phenylethane-1,2-diyl (2E,2′E)-bis(3-phenylacrylate)] |  |  | 30.3 |
| > 5 | 103 to 105 |  |  |  | Cc1ccc([C@H](COC(=O)/C=C/c2ccccc2)OC(=O)/C=C/c2ccccc2)cc1 [Compound 32, (R)-1-(p-tolyl) ethane-1,2-diyl (2E,2′E)-bis(3-phenylacrylate)] |  |  | > 200 |
| > 5 | 200 to 202 |  |  |  | O=C(/C=C/c1ccccc1)NC[C@H](OC(=O)/C=C/c1ccccc1)c1ccc2c(c1)OCO2 [Compound 34, (R)-1-(benzo[d][1,3]dioxol-5-yl)-2-cinnamamidoethyl cinnamate] |  |  | > 200 |
| > 10 |  | > 10 |  |  | O=C(/C=C/c1ccccc1)OC[C@@H](OC(=O)/C=C/c1ccccc1)c1cccc2c1OCO2 [Compound 37, (S)-1-(benzo[d][1,3]dioxol-4-yl)ethane-1,2-diyl(2E,2′E)-bis(3-phenyl acrylate)] |  |  | > 200 |
| 7.42 |  | > 10 |  |  | O=C(/C=C/c1ccccc1)OC[C@H](OC(=O)/C=C/c1ccccc1)c1cccc2c1OCO2 [Compound 38, (R)-1-(benzo[d][1,3]dioxol-4-yl)ethane-1,2-diyl(2E,2′E)-bis(3-phenyl acrylate)] |  |  | > 200 |
| > 10 |  | > 10 |  |  | CCCC(=O)NC[C@@H](OC(=O)CCC)c1ccc(OC)c(OC)c1 [Compound 45, (S)-2-butyramido-1-(3,4-dimethoxyphenyl)ethyl butyrate] |  |  | 51.8 |

| SMILES | IC50 [1, 3] [µM] | melting point [°C] | IC50 [2, 4] [µM] | IC50 [1, 5] [µM] | IC50 [2, 6] [µM] | IC50 ([1]; 3D7, 72 h, read-out: IC50 against 3D7) [µM] | IC50 ([2]; K1, 72 h, read-out: IC50 against K1) [µM] | CC50 at 72 h (in vitro) [µM] |
| --- | --- | --- | --- | --- | --- | --- | --- | --- |
| COc1ccc([C@@H](CNC(=O)/C=C/c2ccccc2O[Si](C)(C)C(C)(C)C)OC(=O)/C=C/c2ccccc2O[Si](C)(C)C(C)(C)C)cc1OC [Compound 46, (S)-2-((E)-3-(2-((tert-butyldimethylsilyl)oxy)phenyl)acrylamido)-1-(3,4-dimethoxyphenyl)ethyl (E)-3-(2-((tert-butyldimethylsilyl)oxy)phenyl)acrylate] | 8.49 |  | 4.56 |  |  |  |  | 58.9 |
| COc1ccc([C@@H](CNC(=O)/C=C/c2cccc(O[Si](C)(C)C(C)(C)C)c2)OC(=O)/C=C/c2cccc(O[Si](C)(C)C(C)(C)C)c2)cc1OC [Compound 47, (S)-2-((E)-3-(3-((tert-butyldimethylsilyl)oxy)phenyl)acrylamido)-1-(3,4-dimethoxyphenyl)ethyl (E)-3-(3-((tert-butyldimethylsilyl)oxy)phenyl)acrylate] | > 10 |  | 7.52 |  |  |  |  | 52.6 |
